Data: patent publication EP1119538B1, “DERIVATIVES OF PHENANTRENE FOR MEDICINAL USE AND A PROCESS FOR THEIR PREPARATION” (Ammar, Khodor, priority 1998, dated 2000)

System: intestinal adenocarcinoma cells (lineage CACO-2)
Assay: Proliferation inhibition in intestinal adenocarcinoma cells, lineage CACO-2
Assay type: cell-based
Details: cell lineage CACO-2
Procedure: Further research has recently been carried out using retinoic acid, sodium butyrate and the invention substances obtained as in Example 1. More specifically, tests were conducted on intestinal adenocarcinoma cells (lineages CACO-2 and HT-29) using isomers of molecular weight 256 - hereinafter referred to simply as "esters 256" - and using the compound of molecular weight 330 corresponding to formula IV, and mixtures mainly containing said compound - hereinafter referred to simply as "HHP" (hydroxy-hydro-phenanthrene). The results were as follows: • 1. The proliferation-inhibiting effect of HHP and butyrate on cell lineage CACO-2 is 80% as compared with 60% for retinoic acid. Inhibition in cell lineage HT-29 treated with HHP of 50µM concentration was 95% by the seventh day. • 2. […] HHP induces in the cell lineages a 3.5 times increase in the number of domes, indicating greater cell differentiation. • 6. […] In CACO-2, alpha 2,6, xyalyl transferase increases 3 times with respect to the control after two weeks' treatment with HHP.

| SMILES | proliferation-inhibiting effect [%] |
| --- | --- |
| CCCC(=O)[O-].[Na+] [butyrate, sodium butyrate, reference compound] | 80 |
| CC1=C(/C=C/C(C)=C/C=C/C(C)=C/C(=O)O)C(C)(C)CCC1 [retinoic acid, reference compound] | 60 |
